Source: the NIST ThermoML archive (doi:10.1016/j.jct.2014.11.001)
Where “and” joins values, the source holds several entries; their conditions need not be identical. Equal values may be shown once.

Legend:
[1] = Molar enthalpy of transition or fusion; settings: Crystal; DSC
[2] = for Normal melting temperature: DTA

NC(=O)c1cccnc1 [3-pyridinecarboxamide]
Settings	Molar enthalpy of transition or fusion [kJ/mol]
[1]	23.7

[2]
Settings	vapor or sublimation pressure
341.25 K, Crystal, Calculated from knudsen effusion weight loss	9.3e-05 kPa
343.28 K, Crystal, Calculated from knudsen effusion weight loss	0.000117 kPa and 0.000116 kPa
345.05 K, Crystal, Calculated from knudsen effusion weight loss	0.000142 kPa and 0.000141 kPa and 0.000144 kPa
347.23 K, Crystal, Calculated from knudsen effusion weight loss	0.000182 kPa and 0.000183 kPa and 0.000184 kPa
349.26 K, Crystal, Calculated from knudsen effusion weight loss	0.000228 kPa and 0.000226 kPa and 0.00023 kPa
351.07 K, Crystal, Calculated from knudsen effusion weight loss	0.000277 kPa and 0.000275 kPa and 0.00028 kPa
353.24 K, Crystal, Calculated from knudsen effusion weight loss	0.000356 kPa and 0.000352 kPa
355.27 K, Crystal, Calculated from knudsen effusion weight loss	0.000434 kPa and 0.00043 kPa and 0.000436 kPa
356.6 K, Crystal, Closed cell (Static) method	0.00051 kPa
357.06 K, Crystal, Calculated from knudsen effusion weight loss	0.000528 kPa and 0.000517 kPa and 0.000525 kPa
358.66 K, Crystal, Closed cell (Static) method	0.00063 kPa
359.25 K, Crystal, Calculated from knudsen effusion weight loss	0.000666 kPa and 0.000648 kPa and 0.000656 kPa
360.58 K, Crystal, Closed cell (Static) method	0.00078 kPa
361.29 K, Crystal, Calculated from knudsen effusion weight loss	0.000812 kPa and 0.000792 kPa and 0.000807 kPa
363.06 K, Crystal, Calculated from knudsen effusion weight loss	0.000975 kPa and 0.000964 kPa and 0.00097 kPa
364.49 K, Crystal, Closed cell (Static) method	0.00116 kPa
366.57 K, Crystal, Closed cell (Static) method	0.00143 kPa
368.47 K, Crystal, Closed cell (Static) method	0.00172 kPa
370.51 K, Crystal, Closed cell (Static) method	0.00211 kPa
372.43 K, Crystal, Closed cell (Static) method	0.00255 kPa
374.46 K, Crystal, Closed cell (Static) method	0.00311 kPa
376.31 K, Crystal, Closed cell (Static) method	0.00371 kPa
378.39 K, Crystal, Closed cell (Static) method	0.00451 kPa
380.33 K, Crystal, Closed cell (Static) method	0.00536 kPa
382.34 K, Crystal, Closed cell (Static) method	0.00647 kPa
384.22 K, Crystal, Closed cell (Static) method	0.00767 kPa
386.28 K, Crystal, Closed cell (Static) method	0.00925 kPa
388.17 K, Crystal, Closed cell (Static) method	0.01094 kPa
390.23 K, Crystal, Closed cell (Static) method	0.01311 kPa
392.23 K, Crystal, Closed cell (Static) method	0.01553 kPa
394.43 K, Crystal, Closed cell (Static) method	0.01868 kPa
396.07 K, Metastable liquid, Closed cell (Static) method	0.02388 kPa
396.08 K, Crystal, Closed cell (Static) method	0.02158 kPa
398.04 K, Metastable liquid, Closed cell (Static) method	0.02729 kPa
398.1 K, Crystal, Closed cell (Static) method	0.02563 kPa
400.07 K, Metastable liquid, Closed cell (Static) method	0.03101 kPa
402.04 K, Metastable liquid, Closed cell (Static) method	0.0351 kPa
404.02 K, Closed cell (Static) method, Liquid	0.03991 kPa
405.98 K, Closed cell (Static) method, Liquid	0.04492 kPa
407.93 K, Closed cell (Static) method, Liquid	0.05046 kPa
409.92 K, Closed cell (Static) method, Liquid	0.05717 kPa
411.89 K, Closed cell (Static) method, Liquid	0.06456 kPa
413.87 K, Closed cell (Static) method, Liquid	0.07284 kPa
415.82 K, Closed cell (Static) method, Liquid	0.08179 kPa
417.81 K, Closed cell (Static) method, Liquid	0.09162 kPa
419.77 K, Closed cell (Static) method, Liquid	0.103 kPa
421.72 K, Closed cell (Static) method, Liquid	0.1152 kPa
423.69 K, Closed cell (Static) method, Liquid	0.1283 kPa
425.65 K, Closed cell (Static) method, Liquid	0.1428 kPa
427.62 K, Closed cell (Static) method, Liquid	0.1598 kPa
429.58 K, Closed cell (Static) method, Liquid	0.1773 kPa
431.56 K, Closed cell (Static) method, Liquid	0.1973 kPa
433.69 K, Closed cell (Static) method, Liquid	0.2206 kPa

Settings	Normal melting temperature [°C]
[2], Crystal	128.1

CN(C)C(=O)c1cccnc1 [N,N-dimethylnicotinamide]
Settings	Molar enthalpy of transition or fusion [kJ/mol]
[1]	19.4

[2]
Settings	vapor or sublimation pressure [kPa]
307.16 K, Metastable liquid, Closed cell (Static) method	0.00057
308.18 K, Crystal, Closed cell (Static) method	0.00049
309.14 K, Metastable liquid, Closed cell (Static) method	0.00069
309.15 K, Crystal, Closed cell (Static) method	0.00056
310.13 K, Crystal, Closed cell (Static) method	0.00062
311.15 K, Crystal, Closed cell (Static) method	0.0007
311.16 K, Metastable liquid, Closed cell (Static) method	0.00082
312.13 K, Crystal, Closed cell (Static) method	0.00078
313.1 K, Crystal, Closed cell (Static) method	0.00088
313.1 K, Metastable liquid, Closed cell (Static) method	0.00099
314.09 K, Crystal, Closed cell (Static) method	0.00098
315.07 K, Metastable liquid, Closed cell (Static) method	0.00118
315.1 K, Crystal, Closed cell (Static) method	0.0011
317.09 K, Metastable liquid, Closed cell (Static) method	0.00142
319.04 K, Closed cell (Static) method, Liquid	0.00169
321.01 K, Closed cell (Static) method, Liquid	0.002
322.97 K, Closed cell (Static) method, Liquid	0.00238
324.98 K, Closed cell (Static) method, Liquid	0.0028
326.94 K, Closed cell (Static) method, Liquid	0.00334
328.93 K, Closed cell (Static) method, Liquid	0.00388
330.88 K, Closed cell (Static) method, Liquid	0.00459
332.9 K, Closed cell (Static) method, Liquid	0.00538
334.96 K, Closed cell (Static) method, Liquid	0.00637
336.93 K, Closed cell (Static) method, Liquid	0.00748
338.92 K, Closed cell (Static) method, Liquid	0.00861
340.89 K, Closed cell (Static) method, Liquid	0.01
342.87 K, Closed cell (Static) method, Liquid	0.01163
344.83 K, Closed cell (Static) method, Liquid	0.0135
346.82 K, Closed cell (Static) method, Liquid	0.01555
348.79 K, Closed cell (Static) method, Liquid	0.0179
350.77 K, Closed cell (Static) method, Liquid	0.02072
352.74 K, Closed cell (Static) method, Liquid	0.02375
354.72 K, Closed cell (Static) method, Liquid	0.02718
356.68 K, Closed cell (Static) method, Liquid	0.03111
358.66 K, Closed cell (Static) method, Liquid	0.03534
360.66 K, Closed cell (Static) method, Liquid	0.04054
362.63 K, Closed cell (Static) method, Liquid	0.04582
364.61 K, Closed cell (Static) method, Liquid	0.05247
366.58 K, Closed cell (Static) method, Liquid	0.05911
368.55 K, Closed cell (Static) method, Liquid	0.06722
370.52 K, Closed cell (Static) method, Liquid	0.07569

Settings	Normal melting temperature [°C]
[2], Crystal	44.2

CNC(=O)c1cccnc1 [N-methylnicotinamide]
Settings	Molar enthalpy of transition or fusion [kJ/mol]
[1]	22

[2]
Settings	vapor or sublimation pressure
329.17 K, Crystal, Calculated from knudsen effusion weight loss	0.000104 kPa and 0.000105 kPa
331.27 K, Crystal, Calculated from knudsen effusion weight loss	0.000132 kPa and 0.000134 kPa and 0.000131 kPa
333.15 K, Crystal, Calculated from knudsen effusion weight loss	0.000162 kPa and 0.00016 kPa and 0.000164 kPa
335.17 K, Crystal, Calculated from knudsen effusion weight loss	0.000211 kPa and 0.000209 kPa and 0.000206 kPa
337.27 K, Crystal, Calculated from knudsen effusion weight loss	0.000261 kPa and 0.000259 kPa
339.15 K, Crystal, Calculated from knudsen effusion weight loss	0.000328 kPa and 0.00032 kPa
341.16 K, Crystal, Calculated from knudsen effusion weight loss	0.000414 kPa and 0.000404 kPa
343.27 K, Crystal, Calculated from knudsen effusion weight loss	0.00051 kPa and 0.000505 kPa and 0.000513 kPa
345.13 K, Crystal, Calculated from knudsen effusion weight loss	0.000619 kPa and 0.000613 kPa and 0.000627 kPa
347.16 K, Crystal, Calculated from knudsen effusion weight loss	0.000784 kPa and 0.000776 kPa and 0.000771 kPa
347.78 K, Crystal, Closed cell (Static) method	0.00085 kPa
349.27 K, Crystal, Calculated from knudsen effusion weight loss	0.000971 kPa and 0.000964 kPa and 0.000957 kPa
349.78 K, Crystal, Closed cell (Static) method	0.00105 kPa
351.69 K, Crystal, Closed cell (Static) method	0.00127 kPa
353.72 K, Crystal, Closed cell (Static) method	0.00157 kPa
355.6 K, Crystal, Closed cell (Static) method	0.00191 kPa
357.66 K, Crystal, Closed cell (Static) method	0.00232 kPa
359.51 K, Crystal, Closed cell (Static) method	0.0028 kPa
361.62 K, Crystal, Closed cell (Static) method	0.00347 kPa
363.5 K, Crystal, Closed cell (Static) method	0.00416 kPa
365.47 K, Crystal, Closed cell (Static) method	0.00502 kPa
367.44 K, Crystal, Closed cell (Static) method	0.00604 kPa
369.43 K, Crystal, Closed cell (Static) method	0.00721 kPa
371.36 K, Crystal, Closed cell (Static) method	0.00857 kPa
373.27 K, Crystal, Closed cell (Static) method	0.01023 kPa
375.33 K, Metastable liquid, Closed cell (Static) method	0.01316 kPa
375.36 K, Crystal, Closed cell (Static) method	0.01234 kPa
377.25 K, Metastable liquid, Closed cell (Static) method	0.01508 kPa
377.39 K, Crystal, Closed cell (Static) method	0.01496 kPa
379.31 K, Metastable liquid, Closed cell (Static) method	0.01731 kPa
381.26 K, Closed cell (Static) method, Liquid	0.01991 kPa
383.29 K, Closed cell (Static) method, Liquid	0.0228 kPa
385.21 K, Closed cell (Static) method, Liquid	0.02592 kPa
387.24 K, Closed cell (Static) method, Liquid	0.02975 kPa
389.16 K, Closed cell (Static) method, Liquid	0.03359 kPa
391.17 K, Closed cell (Static) method, Liquid	0.03824 kPa
393.09 K, Closed cell (Static) method, Liquid	0.04305 kPa
395.12 K, Closed cell (Static) method, Liquid	0.04915 kPa
397.12 K, Closed cell (Static) method, Liquid	0.05526 kPa
399.02 K, Closed cell (Static) method, Liquid	0.06212 kPa
401.07 K, Closed cell (Static) method, Liquid	0.07023 kPa
403.01 K, Closed cell (Static) method, Liquid	0.07943 kPa
404.99 K, Closed cell (Static) method, Liquid	0.08886 kPa
406.95 K, Closed cell (Static) method, Liquid	0.09977 kPa
408.92 K, Closed cell (Static) method, Liquid	0.1117 kPa
410.86 K, Closed cell (Static) method, Liquid	0.1253 kPa
412.85 K, Closed cell (Static) method, Liquid	0.1398 kPa
414.81 K, Closed cell (Static) method, Liquid	0.1564 kPa
416.77 K, Closed cell (Static) method, Liquid	0.1735 kPa
418.72 K, Closed cell (Static) method, Liquid	0.194 kPa
420.68 K, Closed cell (Static) method, Liquid	0.2147 kPa
422.64 K, Closed cell (Static) method, Liquid	0.2384 kPa
424.61 K, Closed cell (Static) method, Liquid	0.2644 kPa
426.55 K, Closed cell (Static) method, Liquid	0.2952 kPa

Settings	Normal melting temperature [°C]
[2], Crystal	106.0
